Patent US10792284B2, “Synergistic cancer treatment” (Memorial Sloan Kettering Cancer Center, priority 2015, dated 2020)
“Also recorded” adds a separate entry of the source.

Columns and labels:
[1] = tested on: KRAS-mutant lung cancer cell lines; experiment: Clonogenic assay; assay type: cell-based, human; details: for sensitization to trametinib (MEK inhibition) in combination: combined with trametinib, KRAS-mutant lung cancer cell lines
Protocol: All experiments were performed at least three times. Representative experiments are shown.

[2] = tested on: BRAF and KRAS-mutant cancers of multiple lineages; details: GDSC dataset; BRAF-mutant compared with KRAS-mutant tumor cells; cited from earlier work

Compound	sensitization to trametinib (MEK inhibition) in combination [1]	sensitivity to MEK inhibitor (IC50), BRAF-mutant versus KRAS-mutant tumor cells [2]	further results
CCN1CCN(c2ccc(Nc3cc(N(C)C(=O)Nc4c(Cl)c(OC)cc(OC)c4Cl)ncn3)cc2)CC1 [BGJ398]	comparable effects; also recorded: confer sensitivity to MEK inhibition		
COCC(=O)NC/C=C/c1ccc2ncnc(Nc3ccc(Oc4ccc(C)nc4)c(C)c3)c2c1 [CP724714]			synergy when combined with Trametinib ([1]; H23 cells, combined with Trametinib): no synergy
O=C(NOC[C@H](O)CO)c1ccc(F)c(F)c1Nc1ccc(I)cc1F [PD0325901]		significantly more sensitive	
COc1cc(F)c(F)c(Nc2ccc(I)cc2F)c1NS(=O)(=O)C1(C[C@H](O)CO)CC1 [RDEA119]		significantly more sensitive	
O=C(Nc1ccc2[nH]nc(-c3ccncc3)c2c1)[C@@H]1CCN(CC(=O)N2CCN(c3ccc(-c4ncccn4)cc3)CC2)C1 [SCH772984]			effect of co-treatment on antiproliferative effects of Trametinib ([1]; co-treatment with Trametinib compared with Trametinib alone): enhances the antiproliferative effects of trametinib
AZD4547	comparable effects; also recorded: confer sensitivity to MEK inhibition		
